Source: patent US20170008928A1, “NOVEL PEPTIDES AND PEPTIDE DERIVATIVES AND USES THEREOF” (Novo Nordisk A/S, priority 2015, published 2017)
Where two headings read alike, the source gives them in different places. Starred links: 1 amine or outer side, 2 acyl side, 3 side chain; linkers in the order of their positions; H or OH if unused. Non-standard residues stand in square brackets, D forms with d. Residues, ends and D or L forms follow the SMILES beside them. *: point of attachment. Phe(4-CH2SO3H) = N[C@@H](Cc1ccc(CS(=O)(=O)O)cc1)C(=O)O; sY = N[C@@H](Cc1ccc(OS(=O)(=O)O)cc1)C(=O)O; C18 diacid = O=C(O)CCCCCCCCCCCCCCCCC(=O)*; γGlu = O=C(O)[C@H](CCC(=O)[*:2])N[*:1]; 2Nal = N[C@@H](Cc1ccc2ccccc2c1)C(=O)O; NMeF = CN[C@@H](Cc1ccccc1)C(=O)O; dNMeD = CN[C@H](CC(=O)O)C(=O)O; Nle = CCCC[C@H](N)C(=O)O; AEEA = NCCOCCOCC(=O)O

Key:
[1] = molecular target: T1, human cholecystokinin-1 receptor (CCK-1R) (Homo sapiens, UniProt P32238); assay: In vitro receptor binding to CCK-1R, SPA displacement of [125I]-CCK-8s from plasma membranes
T1 construct: host or cells: 1321-N1 cells
T1 sequence (P32238 1-428): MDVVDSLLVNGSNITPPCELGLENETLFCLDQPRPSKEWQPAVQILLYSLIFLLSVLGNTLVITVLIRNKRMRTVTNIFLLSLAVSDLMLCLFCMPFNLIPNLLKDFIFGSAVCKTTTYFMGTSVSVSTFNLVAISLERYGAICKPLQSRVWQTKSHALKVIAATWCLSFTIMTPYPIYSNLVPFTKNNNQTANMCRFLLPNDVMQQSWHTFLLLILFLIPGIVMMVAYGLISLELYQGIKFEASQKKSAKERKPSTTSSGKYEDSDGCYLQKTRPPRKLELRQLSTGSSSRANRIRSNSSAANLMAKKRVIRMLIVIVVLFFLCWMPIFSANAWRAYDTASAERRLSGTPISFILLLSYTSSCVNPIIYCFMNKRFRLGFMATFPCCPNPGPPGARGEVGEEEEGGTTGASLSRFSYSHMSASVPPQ
Protocol: (§1) The in vitro binding affinity is a measure of the strength of attraction between a receptor and its ligand.
(§2) Displacement of radio ligand was measured as reduction in light emission from SPA beads.
(§3) The cells used in these assays were 1321-N1 cells stably expressing the CCK-1R or the CCK-2R (Perkin Elmer product numbers ES-530-A and ES-531-A, respectively see www.perkinelmer.com/Catalog/Product/ID/ES-530-A or -ES-531-A, respectively).
(§4) The cells were cultured in an incubator (95% RH (relative humidity), 5% (of standard atmospheric pressure) CO2, 37° C.) in cell culture medium (DMEM (Lonza catalogue BE-12-604F/U1), with 10% (v/v) Foetal Calf Serum (FCS, Gibco catalogue 16140-071), 1% (w/w) Sodium pyruvate (Gibco catalogue 11360-039), 500 μg/ml Geneticin® (G418) (Gibco catalogue 10131-027), 25 μg/ml Zeocin™ (Invitrogen catalogue R250-05), 1% (w/w) Pen/Strep (Gibco catalogue 15140-122)).
(§5) Plasma membranes were prepared by Evotec AG Hamburg by use of the ParrBomb (#4635, Parr Instrument Company). Cells were lysed with a lysis buffer (50 mM Tris, 2.5 mM EDTA, pH7) with added protease inhibitors (Complete Proteaseinhibitors EDTA-free (#05056489001, Roche), 1 tablet per 50 mL lysis buffer). The membrane fraction was separated by centrifugation. First, the cell lysate was centrifuged at 1000×g for 10 minutes at 4° C. The pellet was discarded and the supernatant was then centrifuged at 100.000×g for 30 minutes at 4° C. The supernatant was discarded and the pellet was re-suspended in 1 ml/5×10^8 cells ice cold membrane buffer (50 mM Tris, 320 mM Sucrose and Complete Proteaseinhibitors EDTA-free (#05056489001, Roche); pH7.4) and homogenised with dounce homogeniser. The protein concentration was determined using the Pierce™ BCA Protein Assay Kit according to kit manual, and the membrane preparation was adjust to the desired protein concentration with membrane buffer and aliquoted into pre-cooled tubes, snap-frozen in liquid nitrogen, and stored at −80° C.
(§6) CCK receptor binding assays were performed in 96-well Optiplates (Cat #6005290, PerkinElmer, Waltham, Mass., USA) in a total volume of 200 μl per well. CCK derivatives in 80% DMSO stock solutions of 800 μM were serially diluted […] in assay buffer (50 mM Tris/HCl, 4.5 mM MgCl2, […], 0.02% Tween 20, 0.25% ovalbumin, 0.1% pluronic F-68, pH 7.4) to final assay concentrations ranging from 10^−5 M (ten μM) to 10^−12 M (one pM).
(§7) Fifty μl of reference or test compounds were added to the Optiplates (using technical duplicates, i.e. two wells of each sample, one data point being the average of two wells), followed by addition of 150 μl of the mixture of SPA bead, radio ligand, and plasma membrane. The plates were sealed and incubated in the dark at +22° C. for 2 hours on a IKA MTS plate shaker (IKA-Werke D-79219 Staufen) set at 300 rpm and thereafter centrifuged at 1500 rpm for 10 minutes in a Heraeus Multifuge 3s centrifuge. SPA bead light emission was measured in a TopCount NXT (PerkinElmer) for 2 min/well after a delay of 60 min.
(§8) As a measure of compound affinity, calculations were performed in order to determine the half maximal inhibitory concentration (the IC50 value).
(§9) The data from the TopCounter were given as counts per minute (CPM). The CPM was plotted as a function of the concentration of compound. Dose-response curves were obtained, and IC50 values were calculated, by a nonlinear three-parameter logistic equation (log(agonist) vs response) with hillslope=−1, and shared top and bottom using the software programme GraphPad Prism v 6.0 (Graph Pad software, La Jolla, Calif., USA). The highest dose tested was 10^−5 M (1×10^7 pM).
(§10) The preference of a specific compound for the CCK-1 receptor, or the CCK-1R selectivity, may be defined as IC50 (CCK-2R)/IC50 (CCK-1R).
(§11) A minimum of three biological replicates was measured for each test compound on separate assay plates.

[2] = molecular target: T2, human cholecystokinin-2 receptor (CCK-2R) (Homo sapiens, UniProt P32239); assay: In vitro receptor binding to CCK-2R, SPA displacement of [125I]-CCK-8s from plasma membranes
T2 construct: host or cells: 1321-N1 cells (plasma membranes prepared by Evotec AG Hamburg)
T2 sequence (P32239 1-447): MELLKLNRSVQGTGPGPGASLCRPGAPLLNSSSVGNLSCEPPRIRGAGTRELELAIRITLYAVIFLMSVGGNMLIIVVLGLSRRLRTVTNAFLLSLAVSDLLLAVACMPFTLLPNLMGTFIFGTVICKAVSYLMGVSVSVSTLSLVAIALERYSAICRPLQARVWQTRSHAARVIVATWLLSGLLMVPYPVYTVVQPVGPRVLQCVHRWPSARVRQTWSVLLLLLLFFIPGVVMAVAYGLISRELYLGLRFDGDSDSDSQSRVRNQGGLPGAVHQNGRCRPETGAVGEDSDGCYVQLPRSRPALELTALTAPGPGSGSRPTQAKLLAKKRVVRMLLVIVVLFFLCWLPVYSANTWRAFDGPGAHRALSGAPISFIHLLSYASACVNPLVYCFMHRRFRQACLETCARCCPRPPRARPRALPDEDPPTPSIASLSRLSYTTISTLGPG
Protocol: as §1, §2, §3, §4, §5, §6, §7, §8, §9, §10, §11

[3] = molecular target: T2, human cholecystokinin-2 receptor (CCK-2R); assay: In vitro potency on CCK-2R, whole cell functional assay (IP1 accumulation, IP-One HTRF); format: cell-based
[4] = displacement of [125I]-CCK-8s, plasma membranes of 1321-N1 cells expressing CCK-1R, read-out: IC50 (CCK-1R)
[5] = displacement of [125I]-CCK-8s, plasma membranes of 1321-N1 cells expressing CCK-2R, highest dose tested 1×10^7 pM, read-out: IC50 (CCK-2R)

| SMILES | IC50 [1] [nM] | IC50 [2] [nM] | IC50 [1, 4] [nM] | IC50 [2, 5] [nM] | also measured |
| --- | --- | --- | --- | --- | --- |
| CC[C@H](C)[C@H](NC(=O)[C@H](Cc1c[nH]c2ccccc12)NC(=O)CNC(=O)[C@H](CC(C)C)NC(=O)[C@H](Cc1ccc(OS(=O)(=O)O)cc1)NC(=O)[C@H](CC(=O)O)NC(=O)COCCOCCNC(=O)COCCOCCNC(=O)CC[C@H](NC(=O)CCCCCCCCCCCCCCCCC(=O)O)C(=O)O)C(=O)N(C)[C@H](CC(=O)O)C(=O)N(C)[C@@H](Cc1ccccc1)C(N)=O [Example 10, 2-[2-[2-[[2-[2-[2-[[(4S)-4-Carboxy-4-(17-carboxyheptadecanoylamino)butanoyl]amino]ethoxy]ethoxy]acetyl]amino]ethoxy]ethoxy]acetyl-Asp-sTyr-Leu-Gly-Trp-Ile-DMeAsp-MePhe-amide] ({C18 diacid-γGlu-AEEA-AEEA}-D[sY]LGWI[dNMeD][NMeF]-NH2) | 0.1 | 2300 | – | – | – |
| CC(C)C[C@H](NC(=O)[C@H](Cc1ccc(OS(=O)(=O)O)cc1)NC(=O)[C@H](CC(=O)O)NC(=O)COCCOCCNC(=O)COCCOCCNC(=O)CC[C@H](NC(=O)CCCCCCCCCCCCCCCCC(=O)O)C(=O)O)C(=O)NCC(=O)N[C@@H](Cc1c[nH]c2ccccc12)C(=O)N[C@@H](CCC(N)=O)C(=O)N(C)[C@H](CC(=O)O)C(=O)N(C)[C@@H](Cc1ccccc1)C(N)=O [Example 11, 2-[2-[2-[[2-[2-[2-[[(4S)-4-Carboxy-4-(17-carboxyheptadecanoylamino)butanoyl]amino]ethoxy]ethoxy]acetyl]amino]ethoxy]ethoxy]acetyl-Asp-sTyr-Leu-Gly-Trp-Gln-DMeAsp-MePhe-amide] ({C18 diacid-γGlu-AEEA-AEEA}-D[sY]LGWQ[dNMeD][NMeF]-NH2) | 0.084 | > 10000 | – | – | EC50 [3]: > 1000 nM |
| CCCC[C@H](NC(=O)[C@H](Cc1ccc(CS(=O)(=O)O)cc1)NC(=O)[C@@H](CC(=O)O)NC(=O)COCCOCCNC(=O)COCCOCCNC(=O)CC[C@H](NC(=O)CCCCCCCCCCCCCCCCC(=O)O)C(=O)O)C(=O)NCC(=O)N[C@@H](Cc1c[nH]c2ccccc12)C(=O)N[C@@H](CCCC)C(=O)N(C)[C@H](CC(=O)O)C(=O)N(C)[C@@H](Cc1ccccc1)C(N)=O [Example 25, 2-[2-[2-[[2-[2-[2-[[(4S)-4-Carboxy-4-(17-carboxyheptadecanoylamino)butanoyl]amino]ethoxy]ethoxy]acetyl]amino]ethoxy]ethoxy]acetyl-DAsp-Phe(4-sulfomethyl)-Nle-Gly-Trp-Nle-DMeAsp-MePhe-amide] ({C18 diacid-γGlu-AEEA-AEEA}-[dD][Phe(4-CH2SO3H)][Nle]GW[Nle][dNMeD][NMeF]-NH2) | – | – | 0.072 | > 10000 | EC50 ([3]; 1321-N1 cells stably expressing CCK-2R, IP1 accumulation, highest dose tested 1×10^6 pM, read-out: EC50 (CCK-2R)): > 1000 nM |
| CCCC[C@H](NC(=O)[C@H](Cc1c[nH]c2ccccc12)NC(=O)CNC(=O)[C@H](CC(C)C)NC(=O)[C@H](Cc1ccc(OS(=O)(=O)O)cc1)NC(=O)[C@H](CC(=O)O)NC(=O)COCCOCCNC(=O)COCCOCCNC(=O)CC[C@H](NC(=O)CC[C@H](NC(=O)CCCCCCCCCCCCCCCCC(=O)O)C(=O)O)C(=O)O)C(=O)N(C)[C@H](CC(=O)O)C(=O)N(C)[C@@H](Cc1ccccc1)C(N)=O [Example 28, 2-[2-[2-[[2-[2-[2-[[(4S)-4-Carboxy-4-[[(4S)-4-carboxy-4-(17-carboxyheptadecanoylamino)butanoyl]amino]butanoyl]amino]ethoxy]ethoxy]acetyl]amino]ethoxy]ethoxy]acetyl-Asp-sTyr-Leu-Gly-Trp-Nle-DMeAsp-MePhe-amide] | – | – | 0.1 | – | – |
| CCCC[C@H](NC(=O)[C@H](Cc1c[nH]c2ccccc12)NC(=O)CNC(=O)[C@H](CC(C)C)NC(=O)[C@H](Cc1ccc(OS(=O)(=O)O)cc1)NC(=O)[C@H](CC(=O)O)NC(=O)COCCOCCNC(=O)COCCOCCNC(=O)CC[C@H](NC(=O)CCCCCCCCCCCCCCCCC(=O)O)C(=O)O)C(=O)N(C)[C@H](CC(=O)O)C(=O)N[C@@H](Cc1ccc2ccccc2c1)C(N)=O [Example 50, 2-[2-[2-[[2-[2-[2-[[(4S)-4-Carboxy-4-(17-carboxyheptadecanoylamino)butanoyl]amino]ethoxy]ethoxy]acetyl]amino]ethoxy]ethoxy]acetyl-Asp-sTyr-Leu-Gly-Trp-Nle-DMeAsp-2Nal-amide] ({C18 diacid-γGlu-AEEA-AEEA}-D[sY]LGW[Nle][dNMeD][2Nal]-NH2) | – | – | 0.14 | – | – |
| CCCC[C@H](NC(=O)[C@H](Cc1c[nH]c2ccccc12)NC(=O)CNC(=O)[C@H](CC(C)C)NC(=O)[C@H](Cc1ccc(OS(=O)(=O)O)cc1)NC(=O)[C@H](CCC(=O)O)NC(=O)COCCOCCNC(=O)COCCOCCNC(=O)CC[C@H](NC(=O)CCCCCCCCCCCCCCCCC(=O)O)C(=O)O)C(=O)N(C)[C@H](CC(=O)O)C(=O)N[C@@H](Cc1ccccc1)C(N)=O [Example 52, 2-[2-[2-[[2-[2-[2-[[(4S)-4-Carboxy-4-(17-carboxyheptadecanoylamino)butanoyl]amino]ethoxy]ethoxy]acetyl]amino]ethoxy]ethoxy]acetyl-Glu-sTyr-Leu-Gly-Trp-Nle-DMeAsp-Phe-amide] ({C18 diacid-γGlu-AEEA-AEEA}-E[sY]LGW[Nle][dNMeD]F-NH2) | – | – | 0.049 | 480 | – |
